Data published in patent publication US20230416677A1 (XCELL THERAPEUTICS INC., priority 2020, published 2023).

Legend:
[1] = system: Human dermal papilla cells (hDPC); experiment: Passage culture of dermal papilla cells in albumin-added serum-free medium in the presence or absence of rotenone (density, doubling time, accumulated cell number, viability); format: cell-based
Procedure: hDPCs were prepared in the same manner as in Example 1. […] The hDPCs were inoculated at a concentration of 1.52×10^5/flask. After culturing in a 5% carbon dioxide incubator at 37° C., photographs of the cells were taken before passage to confirm the density of dermal papilla cells according to the rotenone treatment.
On the other hand, each time the density of the cells proliferated to 90% or more, the cells were passaged. During the passage, the cells were detached from each flask by the use of TrypLE Express, and then the cells were centrifuged. The supernatant was discarded to leave only the cells in the lower layer. The cells were well resuspended by adding a condition-based medium, and then the cell numbers were measured using NC250™ (Chemometec, Denmark). Using the measured cell number and culture time, the doubling time and accumulated cell numbers per day were calculated using the following Equation.
A=previous passage, B=current passage
Doubling time=ln(2)×(Δtime between B and A)/ln(count B/count A) [Equation 1]
Accumulated cell number (ACN)=ACN of A×cell count of B/seeding number [Equation 2]
Each time the density of the cells proliferated to 90% or more, the cells were passaged. During the passage, the cells were detached from each flask by the use of TrypLE Express, and then the cells were centrifuged. The supernatant was discarded to leave only the cells in the lower layer. The cells were well resuspended by adding a condition-based medium, and then the cell viability was measured using NC250™(Chemometec, Denmark) at each passage.

[2] = system: Human dermal papilla cells (hDPC); experiment: Flow cytometry of dermal papilla cell biological markers; format: cell-based; conditions: serum-free medium with 0.1 g/L albumin and 1 to 100 pM rotenone versus control not treated with rotenone; FIG. 4
Procedure: The cells were detached from each flask by the use of TrypLE Express, and then the cells were centrifuged. The supernatant was discarded to leave only the cells in the lower layer. The cells were fixed for 15 minutes using a 4% formaldehyde solution, and then reacted on ice for 10 minutes using a 0.5% tween-20 permeabilization solution to prepare cells. The prepared cells were well resuspended in PBS supplemented with 1% FBS, and then the cells were stained using an antibody serving as a previously selected biological marker. CD34 and HLA-DR were selected as negative markers, and alkaline phosphatase, versican, and CD105 were selected as positive markers. After fixing the stained cells with 4% formaldehyde solution for 15 minutes, and flow cytometry was performed using CytoFLEX (Beckman Coulter, USA).

cell division = conditions: background statement; cited from earlier work
[3] = system: Human dermal papilla cells (hDPC); experiment: CCK-8 proliferation of dermal papilla cells in serum-free medium treated with rotenone; format: cell-based; conditions: rotenone 10 to 100 pM, 72 hours, compared to control group (untreated) and PromoCell medium, FIG. 1
Procedure: Human dermal papilla cells (hDPC) purchased from PromoCell were inoculated in a Follicle Dermal Papilla cell Growth media (Promocell, Heidelberg, Germany) supplemented with 1% Antibiotic and Antimycotic Hyclone sv30079.91 (hereinafter referred to as Promocell medium), and a serum-free medium, and cultured in a 5% carbon dioxide incubator at 37° C. to prepare cells. The prepared human dermal papilla cells (hDPCs) were seeded at a concentration of 2×10^3/well into 96-well plates, in which a serum-free medium treated with different concentrations (0, 1, 10, 100, 1000 pM) of rotenone (Tocris Bioscience, UK) was put, in a Follicle Dermal Papilla cell Growth media as a commercially available medium, and then cultured for 72 hours. Then, the culture medium in each well was removed, then added to 10 ul CCK-8 reagent and 90 ul medium, respectively, and cultured for 2 hours at a temperature of 37° C. The absorbance of the supernatant was measured at 450 nm using an ELISA reader to confirm the extent of cell proliferation.

With C=C(C)[C@H]1Cc2c(ccc3c2OC2COc4cc(OC)c(OC)cc4C2C3=O)O1 (stereo in doubt) [rotenone, (2R,6aS,12aS)-1,2,6,6a,12 ,12a-hexahydro-2-isopropenyl-8,9-dimethoxychromeno[3,4-b]furo(2,3-h)chromen-6-one] the “cell density of dermal papilla cells” value ([1]; 10 pM rotenone versus rotenone-untreated group, serum-free medium with 0.1 g/L albumin, FIG. 3a) was “higher cell density”, the doubling time ([1]; rotenone -treated versus rotenone-untreated group, serum-free medium with 0.1 g/L albumin, FIG. 3b) was “lower doubling time” and the cell viability ([1]; rotenone-treated versus rotenone-untreated group, 0.1 g/L albumin, each passage, FIG. 3d) was “higher cell viability”. The “accumulated cell numbers over time” value ([1]; rotenone-treated versus rotenone-untreated group, 0.1 g/L albumin, FIG. 3c) was “higher”, the “biological positive markers (alkaline phosphatase, versican, CD105)” value [2] was “maintained at higher levels” and the “negative markers (CD34, HLA-DR)” value [2] was “maintained at lower levels”. The “concentrations at which rotenone is known to inhibit cell division” value (cell division) was 10 to 100 nM and the “proliferation of dermal papilla cells (CCK-8, absorbance 450 nm)” value [3] was “proliferation of dermal papilla cells increases”.
